Structures can show the parent of a compound that is named as a salt.

The target of the first assay is T1, human GPR52 (Homo sapiens, UniProt Q9Y2T5).
T1 construct: expressed in transfected cells; host or cells: CHO(dhfr-) cells
T1 sequence (Q9Y2T5 whole entry): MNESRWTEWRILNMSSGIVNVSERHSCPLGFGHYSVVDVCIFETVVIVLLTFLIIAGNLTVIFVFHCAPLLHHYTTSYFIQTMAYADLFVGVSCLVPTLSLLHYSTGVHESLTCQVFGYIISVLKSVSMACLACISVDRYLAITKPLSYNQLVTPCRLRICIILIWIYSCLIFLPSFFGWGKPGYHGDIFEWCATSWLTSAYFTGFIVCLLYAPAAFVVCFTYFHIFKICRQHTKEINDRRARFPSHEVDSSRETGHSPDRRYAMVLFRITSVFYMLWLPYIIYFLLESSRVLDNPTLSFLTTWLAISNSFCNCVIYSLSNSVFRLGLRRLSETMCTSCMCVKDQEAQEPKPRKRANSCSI
The experiment in a line: Increase of intracellular cAMP concentration in human GPR52-expressing CHO cell (AlphaScreen cAMP assay). In kind it is cell-based. Particulars: 0.5 h; test compound 10 µm, 37°C, 30 min, human GPR52-expressing CHO(dhfr-) cells; 100% = cAMP with 1 µM N-(2-hydroxyethyl)-3-[2-[3-(trifluoromethyl)benzyl]-1-benzofuran-4-yl]benzamide, 0% = DMSO; read-out: GPR52 agonist activity (%). The method, then: Increase of intracellular cAMP concentration in human GPR52-expressing CHO cell
Using OptiPlate-384 (PerkinElmer Inc.), 1×10^4 human GPR52-expressing CHO(dhfr-) cells were incubated together with a test compound ([…]) in an assay buffer (30 µL, HBSS (containing Ca^2+ and Mg^2+), 0.5% BSA, 100 µM IBMX, 100 µM Ro20-1724, 5 mM HEPES (pH 7.55)) at 37°C for 30 min. Thereafter, according to the protocol of AlphaScreen cAMP Assay Kit (PerkinElmer Inc.), the intracellular cAMP concentration was measured by EnVision (PerkinElmer Inc.). The GPR52 agonist activity was calculated, assuming the intracellular cAMP concentration in the presence of 1 µM N-(2-hydroxyethyl)-3-[2-[3-(trifluoromethyl)benzyl]-1-benzofuran-4-yl]benzamide to be 100% and assuming the intracellular cAMP concentration when DMSO was added instead of the test compound to be 0%.
(In general: In Alpha technology, singlet oxygen from a donor bead excites a nearby acceptor bead.)
In the case of `COCCNC(=O)[C@@H]1C[C@H]1C(=O)Nc1sc(Cc2cc(F)cc(Cl)c2)nc1C` (relative stereo) [Example 189, trans-N-[2-(3-chloro-5-fluorobenzyl)-4-methyl-1,3-thiazol-5-yl]-N'-(2-methoxyethyl)cyclopropane-1,2-dicarboxamide], the activation at 10 µM turned out to be 78%. For the compound `COC(=O)[C@@H]1C[C@@H]1C(=O)Nc1sc(Cc2cc(F)cc(Cl)c2)nc1C` (relative stereo) [Example 190, methyl cis-2-{[2-(3-chloro-5-fluorobenzyl)-4-methyl-1,3-thiazol-5-yl]carbamoyl}cyclopropanecarboxylate], the activation at 10 µM was found to be 82%. Still for that read-out and setting: with `Cn1nccc1C(=O)Nc1cnc(Cc2cccc(C(F)(F)F)c2)s1` [Example 1, 1-methyl-N-{2-[3-(trifluoromethyl)benzyl]-1,3-thiazol-5-yl}-1H-pyrazole-5-carboxamide] the figure was 92%. Regarding `CCN1CC(C(=O)Nc2sc(Cc3cccc(C(F)(F)F)c3)nc2C)CC1=O` (centres unmarked) [Example 4, 1-ethyl-N-(4-methyl-2-[3-(trifluoromethyl)benzyl]-1,3-thiazol-5-yl}-5-oxopyrrolidine-3-carboxamide], the activation at 10 µM was determined as 72%. On the same count and under the same terms, for `Cn1nccc1C(=O)Nc1sc(Cc2cccc(C(F)(F)F)c2)nc1CO` [Example 6, N-{4-(hydroxymethyl)-2-[3-(trifluoromethyl)benzyl]-1,3-thiazol-5-yl}-1-methyl-1H-pyrazole-5-carboxamide] the value was 83%; for `COCc1nc(Cc2cccc(C(F)(F)F)c2)sc1NC(=O)c1ccnn1C` [Example 8, N-{4-(methoxymethyl)-2-[3-(trifluoromethyl)benzyl]-1,3-thiazol-5-yl}-1-methyl-1H-pyrazole-5-carboxamide], 78%. Still for that read-out and setting: with `CCc1nc(Cc2cccc(C(F)(F)F)c2)sc1NC(=O)c1ccnn1C` [Example 11, N-{4-ethyl-2-[3-(trifluoromethyl)benzyl]-1,3-thiazol-5-yl}-1-methyl-1H-pyrazole-5-carboxamide] the figure was 92%. Take `C=Cc1nc(Cc2cccc(C(F)(F)F)c2)sc1NC(=O)c1ccnn1C` [Example 12, N-{4-ethenyl-2-[3-(trifluorornethyl)benzyl]-1,3-thiazol-5-yl}-1-methyl-1H-pyrazole-5-carboxamide]: the activation at 10 µM is 75%. In the case of `CCCc1nc(Cc2cccc(C(F)(F)F)c2)sc1NC(=O)c1ccnn1C` [Example 14, 1-methyl-N-{4-propyl-2-[3-(trifluoromethyl)benzyl]-1,3-thiazol-5-yl}-1H-pyrazole-5-carboxamide], the activation at 10 µM came out at 80%.

In the case of `CCCCc1nc(Cc2cccc(C(F)(F)F)c2)sc1NC(=O)c1ccnn1C` [Example 16, N-{4-butyl-2-[3-(trifluoromethyl)benzyl]-1,3-thiazol-5-yl}-1-methyl-1H-pyrazole-5-carboxamide], the activation at 10 µM is 72%. `Cn1nccc1C(=O)Nc1sc(Cc2cccc(C(F)(F)F)c2)nc1C(F)(F)F` [Example 17, 1-methyl-N-{4-(trifluoromethyl)-2-[3-(trifluoromethyl)benzyl]-1,3-thiazol-5-yl}-1H-pyrazole-5-carboxamide]: the activation at 10 µM is 94%. Still for that read-out and setting: with `CC(=O)N1CCC(C(=O)Nc2sc(Cc3cccc(C(F)(F)F)c3)nc2C)C1` (centres unmarked) [Example 21, 1-acetyl-N-{4-methyl-2-[3-(trifluoromethyl)benzyl]-1,3-thiazol-5-yl}pyrrolidine-3-carboxamide] the figure was 69%. On the same count and under the same terms, with `Cc1nc(Cc2cccc(C(F)(F)F)c2)sc1NC(=O)C1CCCNC1` (centres unmarked) [Example 29, N-{4-methyl-2-[3-(trifluoromethyl)benzyl]-1,3-thiazol-5-yl}piperidine-3-carboxamide hydrochloride] the figure was 71%; with `Cc1nc(Cc2cccc(C(F)(F)F)c2)sc1NC(=O)C1CCNCC1` [Example 33, N-{4-methyl-2-[3-(trifluoromethyl)benzyl]-1,3-thiazol-5-yl}piperidine-4-carboxamide hydrochloride], 70%.

Turning to `Cc1nc(Cc2cccc(C(F)(F)F)c2)sc1NC(=O)C1(C#N)CC1` [Example 39, 1-cyano-N-{4-methyl-2-[3-(trifluoromethyl)benzyl]-1,3-thiazol-5-yl}cyclopropanecarboxamide], the activation at 10 µM turned out to be 79%.

Take `Cc1nc(Cc2cccc(C(F)(F)F)c2)sc1NC(=O)c1ccoc1C` [Example 40, 2-methyl-N-{4-methyl-2-[3-(trifluoromethyl)-benzyl]-1,3-thiazol-5-yl}furan-3-carboxamide]: the activation at 10 µM was determined as 80%. Regarding `Cc1nc(Cc2cccc(C(F)(F)F)c2)sc1NC(=O)c1nccn1C` [Example 41, 1-methyl-N-{4-methyl-2-[3-(trifluoromethyl)-benzyl]-1,3-thiazol-5-yl}-1H-imidazole-2-carboxamide], the activation at 10 µM is 72%. With `Cc1nc(Cc2cccc(C(F)(F)F)c2)sc1NC(=O)c1cncn1C` [Example 43, 1-methyl-N-{4-methyl-2-[3-(trifluoromethyl)-benzyl]-1,3-thiazol-5-yl}-1H-imidazole-5-carboxamide], the activation at 10 µM is 73%. As for `Cc1nc(Cc2cccc(C(F)(F)F)c2)sc1NC(=O)c1c(C)nn(C)c1C` [Example 47, 1,3,5-trimethyl-N-{4-methyl-2-[3-(trifluoromethyl)-benzyl]-1,3-thiazol-5-yl}-1H-pyrazole-4-carboxamide], the activation at 10 µM was found to be 82%. For `Cc1nc(Cc2cccc(C(F)(F)F)c2)sc1NC(=O)c1c(C)nn(C)c1Cl` [Example 51, 5-chloro-1,3-dimethyl-N-{4-methyl-2-[3-(trifluoromethyl)-benzyl]-1,3-thiazol-5-yl}-1H-pyrazole-4-carboxamide], the activation at 10 µM worked out at 77%.

In the case of `CSc1ncccc1C(=O)Nc1sc(Cc2cccc(C(F)(F)F)c2)nc1C` [Example 76, 2-(methylsulfanyl)-N-{4-methyl-2-[3-(trifluoromethyl)-benzyl]-1,3-thiazol-5-yl}pyridine-3-carboxamide], the activation at 10 µM came out at 86%. Same read-out and setting: with `Cc1nc(Cc2cccc(C(F)(F)F)c2)sc1NC(=O)c1ccnn1C` [Example 110, 1-methyl-N-{4-methyl-2-[3-(trifluoromethyl)-benzyl]-1,3-thiazol-5-yl}-1H-pyrazole-5-carboxamide] the figure was 82%; with `Cc1nc(Cc2cccc(C(F)(F)F)c2)sc1NC(=O)c1ccc(CCN2CCCC2)nc1` [Example 122, N-{4-methyl-2-[3-(trifluoromethyl)-benzyl]-1,3-thiazol-5-yl}-6-(2-pyrrolidin-1-ylethyl)pyridine-3-carboxamide], 96%; with `Cc1cc(C(=O)Nc2sc(Cc3cc(F)cc(Cl)c3)nc2C)n(C)n1` [Example 147, N-[2-(3-chloro-5-fluorobenzyl)-4-methyl-1,3-thiazol-5-yl]-1,3-dimethyl-1H-pyrazole-5-carboxamide], 78%. `Cc1nc(Cc2cc(F)cc(Cl)c2)sc1NC(=O)c1cc(Cl)nn1C` [Example 149, 3-chloro-N-[2-(3-chloro-5-fluorobenzyl)-4-methyl-1,3-thiazol-5-yl]-1-methyl-1H-pyrazole-5-carboxamide]: the activation at 10 µM stood at 75%. As to `Cc1nc(Cc2cc(F)cc(Cl)c2)sc1NC(=O)c1ccnn1C(F)F` [Example 150, N-[2-(3-chloro-5-fluorobenzyl)-4-methyl-1,3-thiazol-5-yl]-1-(difluoromethyl)-1H-pyrazole-5-carboxamide], the activation at 10 µM amounted to 69%. `Cc1nc(Cc2cc(F)cc(Cl)c2)sc1NC(=O)c1ccnn1C(C)C` [Example 151, N-[2-(3-chloro-5-fluorobenzyl)-4-methyl-1,3-thiazol-5-yl]-1-(1-methylethyl)-1H-pyrazole-5-carboxamide]: the activation at 10 µM came out at 69%.

The same assay, now with this note: test compound 10 µm, 37°C, 30 min, human GPR52-expressing CHO(dhfr-) cells; 100% = cAMP with 1 µM N-(2-hydroxyethyl)-3-[2-[3-(trifluoromethyl)benzyl]-1-benzofuran-4-yl]benzamide, 0% = DMSO.
Consider `Cc1nc(Cc2cccc(C(F)(F)F)c2)sc1NC(=O)C1CCNC1` (centres unmarked) [Example 20, N-{4-methyl-2-[3-(trifluoromethyl)benzyl]-1,3-thiazol-5-yl}pyrrolidine-3-carboxamide hydrochloride], for which the “GPR52 agonist activity (%)” value is recorded as 74%. On the same count and under the same terms, for `CCNC(=O)N1CCC(C(=O)Nc2sc(Cc3cccc(C(F)(F)F)c3)nc2C)C1` (centres unmarked) [Example 23, N1-ethyl-N3-{4-methyl-2-[3-(trifluoromethyl)benzyl]-1,3-thiazol-5-yl}pyrrolidine-1,3-dicarboxamide] the value was 80%; for `Cc1nocc1C(=O)Nc1sc(Cc2cccc(C(F)(F)F)c2)nc1C` [Example 24, 3-methyl-N-{4-methyl-2-[3-(trifluoromethyl)benzyl]-1,3-thiazol-5-yl}isoxazole-4-carboxamide], 93%; for `Cc1cc(C(=O)Nc2sc(Cc3cccc(C(F)(F)F)c3)nc2C)c(C)o1` [Example 26, 2,5-dimethyl-N-{4-methyl-2-[3-(trifluoromethyl)benzyl]-1,3-thiazol-5-yl}furan-3-carboxamide], 78%. Same read-out and setting: for `CCS(=O)(=O)N1CCC(C(=O)Nc2sc(Cc3cccc(C(F)(F)F)c3)nc2C)C1` (centres unmarked) [Example 30, 1-(ethylsulfonyl)-N-(4-methyl-2-[3-(trifluoromethyl)benzyl]-1,3-thiazol-5-yl}pyrrolidine-3-carboxamide] the value was 81%.

These data come from EP2530078A1, “THIAZOLE DERIVATIVE” (Takeda Pharmaceutical Company Limited, priority 2010, dated 2011).
